Tests used:
Sprague-Dawley rats [1] = test: anti-hypertensive test in urethane-anesthetized rats, blood pressure and pulse frequency recorded after injection; assay type: in vivo
Description: The anti-hypertensive properties of the imidazole derivatives of the present invention have been determined according to the following procedure. Sprague-Dawley rats of normal weight were first anesthetized with urethane. After this, the femoral artery was connected by way of a polyethylene tube with a blood pressure transducer. The test substance was then injected into the femoral vein and the blood pressure and the pulse frequency were registered with a recorder.

[2] = acute toxicity in mice, i.v.; settings: mouse, in vivo, iv
Description: Acute toxicity was determined by using female mice of NMRI-Strain with an age of about 7 months and weighing 30-40 g. The administration of the test compound was i.v.

thrombocytes from a cow = test: antithrombotic activity in vitro: inhibition of ADP- and collagen-induced aggregation of thrombocytes, turbidimetric; assay type: cell-based; settings: cow plasma; for inhibition of ADP-induced aggregation of thrombocytes: ADP added after 10 min incubation; for inhibition of collagen-induced aggregation of thrombocytes: collagen added after 10 min incubation
Description: The antithrombotic activity was investigated in vitro. The inhibiting activity of the compounds against ADP- and collagen-induced aggregation of thrombocytes was measured. In the test thrombocytes from a cow were used. To 1.2 ml of plasma containing 250000 thrombocytes/mm^3 were added 50 µl of a solution of the compound to be tested. After 10 min incubation either ADP or collagen was added. The aggregation of the thrombocytes was turbidimetrically determined at X = 605 nm.

Sprague-Dawley rats [3] = test: anti-hypertensive test in urethane-anesthetized rats, blood pressure and pulse frequency recorded after injection; assay type: in vivo; settings: i.c.v. dosage compared with i.v.
[4] = dose of the maximum not stated, within the active dose range

SMILES | LD50 [2] | inhibition of ADP-induced aggregation of thrombocytes (thrombocytes from a cow) | inhibition of collagen-induced aggregation of thrombocytes (thrombocytes from a cow) | further results
Cc1ccc(CC(O)c2ncc[nH]2)cc1C (centres unmarked) [2-[2-(3,4-dimethylphenyl)-1-hydroxyethyl]-imidazole] | 50 mg/kg |  |  | maximal decrease of the blood pressure (Sprague-Dawley rats [1]; [4]): 17%
Cc1ccc(CCc2ncc[nH]2)cc1C [2-[2-(3,4-dimethylphenyl)-ethyl]-imidazole] | 40 mg/kg |  |  | lowered the blood pressure by (Sprague-Dawley rats [1]; dose 10 mg/kg): 20%
Cc1cccc(C)c1CCc1ncc[nH]1 [2-[2-(2,6-dimethylphenyl)-ethyl]-imidazole] | 20 mg/kg | effectively | effectively | pulse frequency (Sprague-Dawley rats [1]; at high dosages): slight decrease; effect on blood pressure (Sprague-Dawley rats [1]; dose 300 µg/kg i.v.): lowered blood pressure of long duration; decrease of the blood pressure (Sprague-Dawley rats [1]; dose 3 mg/kg i.v., rats): 30%; effect on blood pressure (Sprague-Dawley rats [1]; dose 30 and 100 µg/kg i.v. in rats): lowered the blood pressure for a shorter time; effect on blood pressure (Sprague-Dawley rats [1]; doses of 30 mg/kg i.v.): did not elevate the blood pressure; blood pressure lowered by i.c.v. dosage with smaller amounts (than i.v.) (Sprague-Dawley rats [3]): 10 x
Cc1cccc(C)c1C=Cc1ncc[nH]1 [2-[2-(2,6-dimethylphenyl)-ethenyl]-imidazole] | 40 mg/kg |  |  | lowers the blood pressure by (Sprague-Dawley rats [1]; dose 3 mg/kg i.v. in rats): 17 per cent; pulse frequency (Sprague-Dawley rats [1]; dose not stated): no effect
Cc1cccc(CCC2=NCCN2)c1C [2-[2-(2,3-dimethylphenyl)-ethyl]-imidazoline] | 30 mg/kg |  |  | maximal decrease of the blood pressure (Sprague-Dawley rats [1]; [4]): 26%
Cc1ccc(C)c(CCc2ncc[nH]2)c1 [2-[2-(2,5-dimethylphenyl)-ethyl]-imidazole] | 30 mg/kg |  |  | maximal decrease of the blood pressure (Sprague-Dawley rats [1]; obtained with a dose of 10 mg/kg i.v.): 37%
Cc1c[nH]c(CCc2c(C)cccc2C)n1 [2-[2-(2,6-dimethylphenyl)-ethyl]-4-methyl-imidazole] | 25 mg/kg |  |  | lowered the blood pressure by (Sprague-Dawley rats [1]; dosage 300 µg/kg i.v.): 45%
Cc1cccc(C)c1CCC(O)c1nccn1Cc1ccccc1 (centres unmarked) [1-Benzyl-2-[3-(2,6-dimethylphenyl)-1-hydroxypropyl]-imidazole] | 65 mg/kg | effectively | effectively | 
Cc1ccc(C)c(CC(O)c2ncc[nH]2)c1 (centres unmarked) [2-[2-(2,5-dimethylphenyl)-1-hydroxyethyl]-imidazole] | 45 mg/kg | effectively | effectively | 
Cc1ccccc1Cc1nc(C)c(C)[nH]1 [2-(2-methylbenzyl)-4,5-dimethyl-imidazole] | 30 mg/kg | effectively | effectively | 
Cc1cccc(C)c1CC(O)c1ncc[nH]1 (stereo not drawn) [2-[2-(2,6-dimethylphenyl)-l-hydroxyethyl]-imidazole] | 60 mg/kg |  |  | effect on blood pressure (Sprague-Dawley rats [1]; dose 10 mg/kg): lowers the blood pressure for a longer period; effect on blood pressure (Sprague-Dawley rats [1]; dose 1 and 3 mg/kg i.v.): lowering of the blood pressure of short duration; pulse frequency (Sprague-Dawley rats [1]; dose not stated): very slightly influenced
Cc1c[nH]c(CCc2cccc(C)c2C)n1 [2-[2-(2,3-dimethylphenyl)-ethyl]-4-methyl-imidazole] | 35 mg/kg | effectively | effectively | maximal decrease of the blood pressure (Sprague-Dawley rats [1]; [4]): 32%
Cc1cccc(C)c1CCC1=NCCN1 [2-[2-(2,6-dimethylphenyl)-ethyl]-imidazoline] | 25 mg/kg |  |  | lowers the blood pressure by (Sprague-Dawley rats [1]; dose 1-3 mg/kg in rats): 20%

— patent EP0064820A1, “Substituted imidazole and imidazoline derivatives and their preparation and use” (Farmos-Yhtyma Oy, priority 1981, dated 1982)
